Three compounds from US12281299B2, “Control of nitrogen fixation in rhizobia that associate with cereals” (Massachusetts Institute of Technology, priority 2019, dated 2025) can be followed below.

The test system of experiment [1] is P. protegens Pf-5. Put plainly: Genetic part characterization for P. protegens (promoters, RBSs, terminators, inducible systems; fluorescence reporter, flow cytometry). Type of experiment: cell-based, Pseudomonas protegens. An excerpt:
Construction and characterization genetic parts for P. protegens. Genetic part libraries were built on a pRO1600-ori plasmid pMR-2 using Gibson assembly (New England Biolabs, Cat # E2611). The fluorescence proteins, GFPmut3b and mRFP1 were used as reporters. The Anderson promoter library on the BioBricks Registry were utilized for the characterization of constitutive promoters (FIGS. 11A-11C). The following combinations of cognate regulators and inducible promoters were characterized. IPTG inducible LacI-Ptac, DAPG inducible PhlF-PPhl, aTc inducible TetR-PTet, 3OC6HSL inducible LuxR-PLux, arabinose inducible AraC-PBAD, cuminic acid inducible CymR-PCym, and naringenin inducible FdeR-PFde were optimized (FIGS. 15A-15C). […] RBS library for GFP was designed using the RBS library calculator at the highest-resolution mode, and the 3′ end of the 16S rRNA sequences were adjusted according to the species (3′-ACCTCCTTA-5′ for P. protegens Pf-5). Terminators for T7 RNAP were characterized by placing a terminator between two fluorescence reporters expressed from a single T7 wild-type promoter located upstream of the first fluorescence protein GFP. The expression of the two fluorescence proteins is enabled by an IPTG-inducible T7 RNAP expression system of the controller strain MR7 (FIGS. 13A-13B). All genetic parts for P. protegens Pf-5 were characterized as follows.
(A flow cytometer gives signals particle by particle.)

In experiment [2] the test system is P. protegens Pf-5. The experiment can be described thus: Characterization of genomically integrated controllers (T7 promoter GFP reporter), P. protegens Pf-5. In kind it is cell-based, Pseudomonas protegens. Particulars: P. protegens Pf-5 controller strain MR7, reporter plasmid pMR-80. An excerpt:
Genomic integration and characterization of controllers. The mini-Tn7 insertion system was used to introduce a controller into the genome of P. protegens Pf-5. The IPTG-inducible T7 RNAP expression system and a tetracycline resistant marker tetA was placed between two Tn7 ends (Tn7L and Tn7R). The controller plasmid pMR-85 was introduced into P. protegens Pf-5 by double transformation with pTNS3 encoding the TnsABCD transposase. A genomically-integrated controller located 25 bp downstream of the stop codon of glmS was confirmed by PCR and sequencing. A markerless insertion method using homologous recombination was employed in R. sp. IRBG74. A controller encoding inducible T7 RNAP system flanked by two homology fragments that enables the replacement of recA was cloned into a suicide plasmid. These controller plasmids (IPTG-inducible, pMR82-84; DAPG-inducible, pMR85) in E. coli was mobilized into R. sp. IRBG74 MR18 (AhsdR. Anif) by triparental mating, generating the controller strains (MR19, 20, 21 and 22, respectively). The controller integration in the genome was confirmed by gentamicin sensitivity and diagnostic PCR. All controllers were characterized in a manner identical to that described in genetic part characterization.

In the next experiment the test system is nifH promoter. Put plainly: nifH expression analysis (PnifH-sfgfp, flow cytometry), A. caulinodans. In kind it is cell-based, Azorhizobium caulinodans. Particulars: nifA and rpoN under IPTG control, condition used for nitrogen fixation.
Another experiment has as its system R. sp. IRBG74. Put plainly: Nitrogenase assays (Rhizobia strains), acetylene reduction. In kind it is cell-based, Rhizobium sp. Particulars: DAPG-inducible T7 RNAP driving v3.2 refactored pathway in R. sp. IRBG74. On the procedure:
Nitrogenase assays (Rhizobia strains). […] 5 μl of overnight cultures was diluted into 500 μl of UMS medium with 30 mM succinate, 10 mM sucrose, and 10 mM NH4Cl and appropriate antibiotics in 96-deepwell and incubated for 24 h at 30° C., 900 rpm in a Multitron incubator. Cultures were diluted to an OD600 of 0.4 into 2 mL of UMS medium plus 30 mM succinate and 10 mM sucrose supplemented with appropriate antibiotics, 1.43 mM serine and an inducer (if necessary) in 10 mL glass vials with PTFE-silicone septa screw caps. Headspace in the vials was replaced with 99% argon and 1% oxygen gas using a vacuum manifold. Acetylene was injected to 10% (vol/vol) into each culture vial to begin the reaction. […]
Ethylene quantification. Ethylene production was analyzed by gas chromatography using an Agilent 7890A GC system (Agilent Technologies, Inc., CA USA) equipped with a PAL headspace autosampler and flame ionization detector as follows. […] Acetylene and ethylene were detected at 3.0 min and 3.7 min after injection, respectively. Ethylene production was quantified by integrating the 3.7 min peak using Agilent GC/MSD ChemStation Software.
The bacteria were grown in appropriate media, including antibiotics, and then evaluated for nitrogenase activity using an acetylene reduction assay (see Methods and Materials Section). […]

Experiment [3] relates to E. coli Marionette MG1655. The conditions noted are these: 1 mM choline-Cl.
Experimental: The reporter plasmid pMR-120 in which gfpmut3b is fused to the PT7(P2) promoter (FIGS. 28A-28C) was co-transformed to analyze the response functions of each of the 12 T7 RNAP controller plasmids. To characterize controllers, single colonies were inoculated into 1 ml LB supplemented with antibiotics in 96-deepwell plates (USA Scientific, Cat #18962110) and grown overnight at 30° C., 900 rpm in a Multitron incubator (INFORS HT, MD). 0.5 μl of overnight cultures was diluted into 200 μl of LB with antibiotics and appropriate inducers in 96-well plates (Thermo Scientific, Cat #12565215) and incubated for 6 h at 30° C., 1,000 rpm in an ELMI DTS-4 shaker (ELMI, CA). After growth, 4 μl of culture sample was diluted into 150 μl PBS with 2 mg/mL kanamycin for flow cytometry analysis.
Flow cytometry. Cultures with fluorescence proteins were analyzed by flow cytometry using a BD Biosciences LSRII Forterssa analyzer with a 488 nm laser and 510/20-nm band pass filter for GFP and a 561 nm laser and 610/20 nm band pass filter for mCherry and mRFP1. […] The median fluorescence from cytometry histograms was calculated for all samples. The median autofluorescence was subtracted from the median fluorescence and reported as the fluorescence value in arbitrary unit (au).

Experimental for nifH promoter: Flow cytometry. Cultures with fluorescence proteins were analyzed by flow cytometry using a BD Biosciences LSRII Forterssa analyzer with a 488 nm laser and 510/20-nm band pass filter for GFP and a 561 nm laser and 610/20 nm band pass filter for mCherry and mRFP1. Cells were diluted into 96-well plates containing phosphate buffered saline solution (PBS) supplemented with 2 mg/mL kanamycin after incubation. Cells were collected over 20,000 events which were gated using forward and side scatter to remove background events using FlowJo (TreeStar Inc., Ashland, Oreg.). The median fluorescence from cytometry histograms was calculated for all samples. The median autofluorescence was subtracted from the median fluorescence and reported as the fluorescence value in arbitrary unit (au).
nifH expression analysis. Complementation of NifA was tested using plasmid pMR-128 to 130 that contains the sfgfp fused to the nifH promoter in the A. caulinodans ΔnifA mutant. The inducible NifA/RpoN expression was provided by the plasmid pMR-121 into which sfgfp driven by the nifH promoter was added to analyze MN promoter activity, yielding pMR-131 (FIG. 29). […] Each of the plasmids was mobilized into the A. caulinodans ΔnifA mutant, which was grown following the same protocol as used for nitrogenase activity (described herein). […]

Regarding `CC(C)S[C@@H]1O[C@H](CO)[C@H](O)[C@H](O)[C@H]1O` [IPTG, Isopropyl-beta-D-thiogalactoside], the “expression range of IPTG-inducible system” value in the experiment on P. protegens Pf-5 [1] (Ptac promoter and Lad (Q18M/A47V/F161Y) protein, 1 mM IPTG, P. protegens Pf-5) was found to be 110 fold. Further, in the experiment on P. protegens Pf-5 [2], the “activation of GFP expression by the T7 promoter” value came out at 96 fold. Also, the “dynamic range of response function from the nifH promoter” value in the experiment with nifH promoter was 45 fold.

Consider `CC(=O)c1c(O)cc(O)c(C(C)=O)c1O` [DAPG, 2,4-Diacetylphloroglucinol, reference compound], for which the “induction of nitrogenase activity” value with R. sp. IRBG74 is 9 fold. The “function of inducible system” value in the experiment on P. protegens Pf-5 [1] (P. protegens Pf-5, pRO1600 plasmid) is “functional”.

On to `C[N+](C)(C)CCO.[Cl-]` [choline-Cl, Choline chloride], for which the “inducibility of the T7 promoter by controller plasmid” value in experiment [3] was “not inducible”.
